According to US20240285552A1 (priority 2020, published 2024):
Where two headings read alike, the source gives them in different places. Residues, ends and D or L forms follow the SMILES beside them. *: point of attachment. Cbz = O=C(OCc1ccccc1)*; CH2F = FC*

Key:
Vero E6 cells = settings: Example C (Table 4); for Conc. at Max. % Viability / Conc. at Min. % Viability / Max. Viability / Min. Viability: Vero E6
SARS-CoV-2 USA_WA1/2020 = experiment: microbe, parasite or virus in culture; type: cell-based
in vitro [1] = settings: African green monkey
[2] = system: SARS CoV-2 nanoluciferase reporter virus; experiment: microbe, parasite or virus in culture; type: cell-based; settings: for Concentration at Maximum % Inhibition / Maximum Inhibition: A549-ACE2, NLRV; for IC50: read-out: IC50, viral replication, Nanoluciferase Reporter Virus Assay
[3] = molecular target: T1, rhACE2 and SARS-CoV-2 Spike (RBD) protein interaction (Homo sapiens, UniProt Q9BYF1); experiment: Spike (RBD)-ACE2 binding assay (ELISA); parameters: species or system human; SARS-CoV-2; settings: bell shaped dose-response curve; CLQ series; read-out: IC50_2, ACE2-Spike (RBD) protein interaction
T1 construct: purchased RayBiotech CoV-SACE2-1
T1 sequence (Q9BYF1 18-740): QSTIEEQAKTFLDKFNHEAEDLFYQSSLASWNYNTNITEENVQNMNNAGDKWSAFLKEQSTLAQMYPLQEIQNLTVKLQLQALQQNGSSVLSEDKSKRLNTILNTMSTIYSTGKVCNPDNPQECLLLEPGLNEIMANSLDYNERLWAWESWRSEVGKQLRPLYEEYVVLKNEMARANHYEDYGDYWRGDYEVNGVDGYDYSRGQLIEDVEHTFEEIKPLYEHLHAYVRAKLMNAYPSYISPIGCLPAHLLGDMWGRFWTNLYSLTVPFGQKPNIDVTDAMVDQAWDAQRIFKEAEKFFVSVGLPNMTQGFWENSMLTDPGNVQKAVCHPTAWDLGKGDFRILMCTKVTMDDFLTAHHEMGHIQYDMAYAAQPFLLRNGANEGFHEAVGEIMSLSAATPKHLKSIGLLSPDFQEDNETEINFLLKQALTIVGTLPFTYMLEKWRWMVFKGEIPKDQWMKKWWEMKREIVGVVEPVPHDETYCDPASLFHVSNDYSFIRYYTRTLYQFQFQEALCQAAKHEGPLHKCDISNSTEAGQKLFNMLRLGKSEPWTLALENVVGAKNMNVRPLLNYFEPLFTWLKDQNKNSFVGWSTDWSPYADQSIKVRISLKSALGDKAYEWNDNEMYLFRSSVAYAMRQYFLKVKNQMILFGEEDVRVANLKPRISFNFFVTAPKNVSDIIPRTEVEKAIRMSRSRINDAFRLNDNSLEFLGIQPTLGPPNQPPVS

[4] = molecular target: T2, recombinant human ACE2 (rhACE2) (Homo sapiens, UniProt Q9BYF1); experiment: ACE2 inhibitor screening assay (exopeptidase activity), CLQ and analogues, ZnCl2; type: biochemical
T2 construct: purchased BPS Bioscience 79923
T2 sequence (Q9BYF1 18-805): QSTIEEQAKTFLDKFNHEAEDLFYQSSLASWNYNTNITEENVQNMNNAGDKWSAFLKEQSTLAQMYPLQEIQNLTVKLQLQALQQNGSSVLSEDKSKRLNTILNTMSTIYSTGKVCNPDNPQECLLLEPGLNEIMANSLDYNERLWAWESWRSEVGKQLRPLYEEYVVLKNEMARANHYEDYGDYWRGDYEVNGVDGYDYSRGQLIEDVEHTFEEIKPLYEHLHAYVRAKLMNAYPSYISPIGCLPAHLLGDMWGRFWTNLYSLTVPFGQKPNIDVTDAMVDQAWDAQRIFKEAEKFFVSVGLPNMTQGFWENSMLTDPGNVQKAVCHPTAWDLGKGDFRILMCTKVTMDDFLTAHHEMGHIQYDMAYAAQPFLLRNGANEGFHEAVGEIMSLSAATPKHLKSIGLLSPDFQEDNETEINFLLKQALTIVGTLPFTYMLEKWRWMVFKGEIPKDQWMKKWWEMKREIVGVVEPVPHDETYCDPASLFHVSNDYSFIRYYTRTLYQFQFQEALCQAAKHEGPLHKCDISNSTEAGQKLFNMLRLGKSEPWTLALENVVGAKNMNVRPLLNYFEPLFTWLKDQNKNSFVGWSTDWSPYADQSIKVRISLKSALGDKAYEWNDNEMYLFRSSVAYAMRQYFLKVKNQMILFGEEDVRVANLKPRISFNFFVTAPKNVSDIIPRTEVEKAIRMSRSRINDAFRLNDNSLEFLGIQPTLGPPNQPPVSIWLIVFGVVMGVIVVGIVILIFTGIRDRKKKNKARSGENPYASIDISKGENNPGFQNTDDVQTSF
Procedure: An ACE2 inhibitor screening assay kit with fluorogenic substrate (Catalogue #79923) was purchased from BPS Bioscience (San Diego, CA) and adapted to measure the exopeptidase activity of ACE2 in the presence and absence of inhibitors. The fluorescence assay was performed using a black flat-bottom 96-well plate with a final reaction volume of 50 μL following the manufacturer's instructions. 10 mM stock solutions of the compounds were prepared in Dimethyl sulfoxide (DMSO). Next, the compounds were serially diluted in DMSO as follows: 100 μM, 50 μM, 10 μM, 1 μM, 0.5 μM, and 0.1 μM for CLQ and CLBQ14 as well as 10 μM and 1 μM for CLCQ. All experiments were performed in triplicates. Each plate contained a positive control of enzyme-treated with vehicle alone (2% DMSO) and a blank control with no enzyme. Briefly, each reaction contained 24 μL of purified recombinant human ACE2 protein (0.42 ng/L) in ACE2 buffer, 1 μL of compound at serially diluted concentrations, and 25 μL ACE2 fluorogenic substrate. The total reaction volume was 50 μL. […] Thereafter, the fluorescence intensities (λExcitation=535 nm, λEmission=595 nm) were measured using a Beckman Coulter DTX880 multimode plate reader. […]
The effects of CLQ, CLBQ14, and CLCQ on the exopeptidase activity of rhACE2 were determined using a fluorometric assay provided by BPS Bioscience and adapted accordingly. […]

in vitro [5] = settings: human
[6] = Example C (Table 3), read-out: IC 50 against SARS-COV-2 Induced Cytopathic Effect in Vero E6 Cells
[7] = Severe acute respiratory syndrome coronavirus 2, Vero C1008, 72 h, read-out: IC50 against SARS-CoV-2 infection induced CPE
[8] = Severe acute respiratory syndrome coronavirus 2, Vero C1008, Example C (Table 3), read-out: IC 50 against SARS-COV-2 Induced Cytopathic Effect in Vero E6 Cells
[9] = Severe acute respiratory syndrome coronavirus 2, Vero C1008, Vero E6, Example B, highest concentration tested 30 μM, read-out: IC50 against SARS-CoV-2 infection induced CPE
[10] = Cytotoxicity CC50, Vero E6, 72 hours, Example C (Table 4)
[11] = 50% cytotoxic concentration (CC50), Vero E6, 72 hours, Examples A and B, highest concentration 30 μM
[12] = Cytotoxicity CC50, A549 cells, 72 hours
[13] = Severe acute respiratory syndrome coronavirus 2, A549, 72 h

SMILES | Conc. at Max. % Viability (Vero E6 cells) [nM] | Conc. at Min. % Viability (Vero E6 cells) [nM] | Max. Viability (Vero E6 cells) [%] | Min. Viability (Vero E6 cells) [%] | Concentration at Maximum % Inhibition (SARS-CoV-2 USA_WA1/2020; Example C (Table 3)) [µM] | Maximum Inhibition (SARS-CoV-2 USA_WA1/2020; Example C (Table 3)) [%] | IC50 (SARS-CoV-2 USA_WA1/2020; [7]) [µM] | IC50 (SARS-CoV-2 USA_WA1/2020; [9]) [µM] | Conc. at Max. % Viability (A549 cells) [nM] | Conc. at Min. % Viability (A549 cells) [nM] | Max. Viability (A549 cells) [%] | Min. Viability (A549 cells) [%] | Concentration at Maximum % Inhibition [2] | Maximum Inhibition [2] [%] | also measured
CCOC(=O)[C@H]1O[C@@H]1C(=O)N[C@@H](CC(C)C)C(=O)NCCC(C)C [Aloxistatin] | 234 | 117 | 106.71 | 93.02 | 15 | 130.81 | 16.7 | 21.8 | – | – | – | – | – | – | IC50 (SARS-CoV-2 USA_WA1/2020; [6]): 4.59 µM; IC50 (SARS-CoV-2 USA_WA1/2020; [8]): 4.58 µM; CC50 at 72 h (in vitro [1]; [10]): > 30 µM
CC(C)C[C@H](NC(=O)OCc1ccccc1)C(=O)N[C@@H](CC(C)C)C(=O)N[C@@H](Cc1ccc(O)cc1)C(=O)CF [Calpain Inhibitor IV] (Cbz-Leu-Leu-Tyr-CH2F) | 56 | 28 | 106.84 | 99.77 | 7.17 | 115.91 | – | – | 90 | 5.6 | 94.37 | 77.49 | .0028 µM | 99.56 | CC50 (Vero E6 cells; read-out: Cytotoxicity CC50, Vero E6, 72 hours): > 7.17 µM; CC50 (A549 cells; read-out: Cytotoxicity CC50, 72 hours): > 0.179 µM; IC50 (SARS-CoV-2 USA_WA1/2020; Vero E6, Example B, highest concentration tested 30 μM, read-out: IC50 against SARS-CoV-2 infection induced CPE): 0.29 µM; IC50 (SARS-CoV-2 USA_WA1/2020; read-out: IC 50 against SARS-COV-2 Induced Cytopathic Effect in Vero E6 Cells): 3.73 µM; IC50 (SARS-CoV-2 USA_WA1/2020; read-out: IC50 against SARS-CoV-2 infection induced CPE): 0.41 µM; IC50 [2]: 0.0005 µM
CCN(CCO)CCCC(C)Nc1ccnc2cc(Cl)ccc12 (centres unmarked) [Hydroxychloroquine] | – | – | – | – | – | – | 5.04 | 5.16 | – | – | – | – | – | – | –
Oc1c(Cl)cc(Cl)c2cccnc12 [CLCQ, 5,7-Dichloro-8-hydroxyquinoline] | – | – | – | – | – | – | 16.3 | – | – | – | – | – | – | – | CC50 (in vitro [1]; [11]): > 30 µM
Oc1c(I)cc(Cl)c2cccnc12 [CLQ, 5-chloro-7-iodo-8-quinolinol] | – | – | – | – | – | – | 12.6 | – | – | – | – | – | – | – | IC50 [3]: 18.2 µM; CC50 at 72 h (in vitro [1]; [11]): > 30 µM; IC50 ([4]; 2.5 hours, room temperature, read-out: IC50 against rhACE2 exopeptidase activity): 5.36 µM
CC(C)C(=O)OC[C@H]1O[C@@H](n2ccc(NO)nc2=O)[C@H](O)[C@@H]1O [Molnupiravir] | – | – | – | – | – | – | – | – | 2 | 14 | 98.56 | 88.88 | 10 µM | 91.12 | CC50 at 72 h (in vitro [5]; [12]): > 10 µM; IC50 [2, 13]: 4.2 µM
CCN(CC)CCCC(C)Nc1ccnc2cc(Cl)ccc12 (centres unmarked) [Chloroquine] | 469 | 3750 | 99.66 | 90.50 | 30 | 114.51 | 1.1 | 3.56 | 23 | 30000 | 117.48 | 9.11 | 15 µM | 99.53 | CC50 at 72 h (in vitro [5]): 18.4 µM; IC50 (SARS-CoV-2 USA_WA1/2020; [8]): 8.85 µM; IC50 [2, 13]: 3.3 µM; CC50 at 72 h (in vitro [1]): > 30 µM
[Cl-].[Cl-].[Zn+2] [ZnCl2, Zinc Chloride] | – | – | – | – | – | – | – | – | – | – | – | – | – | – | effect on rhACE2 exopeptidase activity ([4]; 100 μM to 100 nM): increasing exopeptidase activity
CCC(CC)COC(=O)[C@H](C)N[P@](=O)(OC[C@H]1O[C@@](C#N)(c2ccc3c(N)ncnn23)[C@H](O)[C@@H]1O)Oc1ccccc1 [Remdesivir] | 3750 | 117 | 100.73 | 91.15 | 30 | 120.89 | 4.42 | 8.54 | 6 | 94 | 95.46 | 84.65 | 1.5 µM | 99.58 | CC50 (in vitro [5]; [12]): > 3 µM; IC50 (SARS-CoV-2 USA_WA1/2020; [6]): 16.1 µM; IC50 (SARS-CoV-2 USA_WA1/2020; [8]): 16 µM; CC50 (in vitro [1]; [10]): > 30 µM
Oc1c(Br)cc(Cl)c2cccnc12 [CLBQ14, 7-bromo-5-chloro-8-hydroxyquinoline] | – | – | – | – | – | – | 14.7 | – | – | – | – | – | – | – | inhibition at 30 µM (SARS-CoV-2 USA_WA1/2020; Severe acute respiratory syndrome coronavirus 2, Vero C1008, at 30 μM, Example A, read-out: maximum inhibition of CPE): ~103%; CC50 at 72 h (in vitro [1]; [11]): > 30 µM
CC(C)(C)[C@H](NC(=O)C(F)(F)F)C(=O)N1C[C@H]2[C@@H]([C@H]1C(=O)N[C@H](C#N)C[C@@H]1CCNC1=O)C2(C)C [PF-07321332] | – | – | – | – | – | – | – | – | – | – | – | – | 0.5 µM | 99.67 | IC50 ([2]; listed as Paxlovid): 0.05 µM; IC50 [2]: 0.057 µM
